Test results published in PMC7614687, “Modulation of the substrate specificity of the kinase PDK1 by distinct conformations of the full-length protein*” (Science signaling, 2023).
Several values for one entry are separate records, joined by “and”; a condition that tells them apart may be missing. Identical values can stand only once. Like-named read-outs stand apart in the source and are kept apart here.

Columns and labels:
GST-PDK1_1-556 [1] = molecular target: T1, GST-PDK1_1-556 (Homo sapiens, UniProt O15530); test: AlphaScreen GST-PDK1_1-556 / biotin-PIFtide interaction; format: binding
T1 construct: made in house; host or cells: HEK293 cells (transient transfection of pEBG2T); peptide synthesized by Pepscan
T1 sequence (O15530 1-556): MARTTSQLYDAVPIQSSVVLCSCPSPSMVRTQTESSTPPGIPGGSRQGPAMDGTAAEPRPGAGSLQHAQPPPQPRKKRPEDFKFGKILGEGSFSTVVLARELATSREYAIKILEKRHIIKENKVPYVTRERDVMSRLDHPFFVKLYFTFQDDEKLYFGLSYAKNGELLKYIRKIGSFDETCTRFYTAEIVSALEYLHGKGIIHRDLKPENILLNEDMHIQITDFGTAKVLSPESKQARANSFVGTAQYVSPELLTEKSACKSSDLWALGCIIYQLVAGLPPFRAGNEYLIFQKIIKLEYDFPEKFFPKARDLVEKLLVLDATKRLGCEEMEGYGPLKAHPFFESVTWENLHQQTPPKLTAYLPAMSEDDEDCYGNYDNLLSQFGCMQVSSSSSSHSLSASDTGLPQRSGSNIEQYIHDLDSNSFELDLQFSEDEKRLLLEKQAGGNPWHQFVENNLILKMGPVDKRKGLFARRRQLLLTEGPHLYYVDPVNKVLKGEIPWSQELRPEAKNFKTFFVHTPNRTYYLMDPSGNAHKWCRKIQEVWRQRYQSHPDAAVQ
Experimental: (§1) The AlphaScreen® assay was performed following the general guidelines from the manufacturer (Perkin Elmer) ([29]). In short, the assay was performed in a final volume of 25 μl in white 384-well microtiter plates (Greiner) in a standard buffer containing 50 mM Tris-HCl (pH 7.4), 100 mM NaCl, 2 mM DTT, 0.01% (v/v) Tween-20 and 0.1% (w/v) BSA, with the addition of 5 μl of beads (anti-GST coated acceptor beads and streptavidin-coated donor beads; nickel chelate-coated acceptor beads and streptavidin-coated donor beads; or nickel chelate-coated acceptor beads and GSH-coated donor beads, 20 μg/ml final concentrations for each bead type). AlphaScreen assays for His-tagged proteins and GST-fusion proteins were performed using nickel chelate-coated acceptor beads and GSH-coated donor beads; alphascreen assays for His-tagged proteins and biotinylated molecules were performed using nickel chelate-coated acceptor beads and streptavidin-coated donor beads; alphascreen assays for GST-fusion proteins and biotinylated molecules were performed using anti-GST coated acceptor beads and streptavidin-coated donor beads (Perkin Elmer).
The interaction between GST-PDK1_1-556 and biotin-PIFtide was performed as described previously ([29], [32]) in the standard buffer, but the bead concentration was lowered to 15 μg/ml.

GST-PDK1_1-556 [2] = molecular target: T1, GST-PDK1_1-556; test: AlphaScreen biotin-PIP3 / GST-PDK1_1-556 displacement; format: binding; settings: PIP3 20 nM, GST-PDK1 3 nM
Experimental: as §1
The conditions for each AlphaScreen assay were identified in cross-titration experiments for each interaction to choose the ideal pair of concentrations within the linear range of the interactions. As required, the standard conditions were modified to use less material, to increase binding of the interacting molecules, to lower background signal, and so on. His-PDK1 and GST-fusion protein in the presence or absence of the different compounds were incubated in the dark for 60 min at room temperature and the emission of light from the acceptor beads was measured in an EnVision reader (Perkin Elmer) or Spark plate reader (Tecan). AlphaScreen assays were performed at least twice, although most experiments were performed multiple times by different researchers with different batches of purified proteins with similar results.
(§2) Biotin-PIP3 interactions with GST-PDK1_1-556 or GST-PDK1_360-556 were assessed in the standard buffer. […]

PDK1 = molecular target: T2, PDK1 (Homo sapiens, UniProt O15530); test: Thermo Fisher "PDK1 Direct" assay (peptide Ser/Thr 07, FRET readout); format: biochemical; settings: for Hill slope, PDK1 direct / IC50: 10-point titration
T2 sequence (O15530 1-556): T1 sequence (O15530 1-556)

[3] = molecular target: T3, His-PDK1_1-556 and GST-PDK1_360-556 (Homo sapiens, UniProt O15530); test: AlphaScreen PDK1 dimerization assay His-PDK1_1-556 / GST-PDK1_360-556; format: binding
T3 construct: made in house; host or cells: Sf9 insect cells (His-PDK1_1-556); HEK293 cells (GST-PDK1_360-556)
T3 sequence (O15530 1-556): T1 sequence (O15530 1-556)
Experimental: as §1
(§3) The conditions for each AlphaScreen assay were identified in cross-titration experiments for each interaction to choose the ideal pair of concentrations within the linear range of the interactions. […] His-PDK1 and GST-fusion protein in the presence or absence of the different compounds were incubated in the dark for 60 min at room temperature and the emission of light from the acceptor beads was measured in an EnVision reader (Perkin Elmer) or Spark plate reader (Tecan). […]

PDK1_1-556 = molecular target: T4, PDK1_1-556 (Homo sapiens, UniProt O15530); test: Differential scanning fluorimetry, thermal stability of PDK1_1-556; format: binding; settings: PDK1 1 μM
T4 construct: effect of HYG8 on the thermal stability (ΔTm) of PDK1_1-556 (H) and PDK1_50-359 (I); His (N); made in house; host or cells: Sf9 insect cells (baculovirus)
T4 sequence (O15530 1-556): T1 sequence (O15530 1-556)
Experimental: The thermal stability of PDK1 was assessed by monitoring the unfolding of PDK1 by the increase in the fluorescence of SYPRO Orange (Invitrogen) using a real-time PCR device (StepOnePlus, Applied Biosystems and BioRad CFX96) following a previously described protocol ([70]). The reactions were performed in a final volume of 10 μl in white 96-well PCR microtiter plates (Greiner) and contained 1 μM PDK1, 10 mM HEPES (pH 7.5), 150 mM NaCl, 1/1000 SYPRO Orange and 1 mM dithiothreitol. For valsartan, the assay buffer was modified to exclude NaCl. PIFtide or compounds (at a final DMSO concentration of 1%) were added to this reaction mixture. The temperature gradient was performed in steps of 0.3 °C in the range from 25 to 70 °C. To calculate the Tm values, data were exported to GraphPad Prism and curves fitted to a Boltzmann sigmoidal equation with an acceptable confidence interval of 95%. Statistical analysis was performed with Infostat software (http://www.infostat.com.ar) and GraphPad Prism by first verifying a normal distribution of pooled residuals (Shapiro-Wilks test) and homogeneity of variance (F test), and then performing a one-way ANOVA followed by the post hoc comparisons test indicated in each figure legend.

GST-PDK1_360-556 = molecular target: T5, GST-PDK1_360-556 (Homo sapiens, UniProt O15530); test: AlphaScreen biotin-PIP3 / GST-PDK1_360-556 (linker-PH domain) displacement; format: binding; settings: PIP3 20 nM, GST-PDK1 3 nM
T5 construct: GST-PDK1_360-556 (GST-PDK1-Linker-PH) was cloned into the BamHI-KpnI sites in pEBG2T plasmid; made in house; host or cells: HEK293 cells (transient transfection of pEBG2T)
T5 sequence (O15530 360-556): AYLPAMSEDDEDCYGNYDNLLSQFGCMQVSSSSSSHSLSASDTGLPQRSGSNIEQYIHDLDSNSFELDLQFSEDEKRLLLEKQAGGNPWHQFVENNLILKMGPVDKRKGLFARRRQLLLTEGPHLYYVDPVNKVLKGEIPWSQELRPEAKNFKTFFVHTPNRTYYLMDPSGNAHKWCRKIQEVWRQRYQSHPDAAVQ
Experimental: The AlphaScreen® assay was performed following the general guidelines from the manufacturer (Perkin Elmer) ([29]). In short, the assay was performed in a final volume of 25 μl in white 384-well microtiter plates (Greiner) in a standard buffer containing 50 mM Tris-HCl (pH 7.4), 100 mM NaCl, 2 mM DTT, 0.01% (v/v) Tween-20 and 0.1% (w/v) BSA, with the addition of 5 μl of beads (anti-GST coated acceptor beads and streptavidin-coated donor beads; nickel chelate-coated acceptor beads and streptavidin-coated donor beads; or nickel chelate-coated acceptor beads and GSH-coated donor beads, 20 μg/ml final concentrations for each bead type). […]
as §3, §2

[4] = replicate point 1, read-out: % Inhibition Point 1
[5] = replicate point 2, read-out: % Inhibition Point 2
[6] = single point, N=2, read-out: Inhibition at 1 μM (%)
[7] = absence of PIFtide, read-out: IC50 (nM), displacement of His-PDK1_1-556 interaction with GST-PDK1_360-556
[8] = with PIFtide, read-out: IC50 (nM), displacement of His-PDK1_1-556 interaction with GST-PDK1_360-556 with PIFtide

NCCO[C@H]1[C@@H](OP(=O)(O)O)[C@H](OP(=O)(O)O)[C@@H](OP(=O)(O)O)[C@H](OP(=O)(O)O)[C@H]1OP(=O)(O)O [AMR1474, 2-O-(2-aminoethyl)-IP5]
effect on PDK1-PIFtide interaction (GST-PDK1_1-556 [1]): virtually no effect
displacement of PIP3 from GST-PDK1_1-556 (GST-PDK1_1-556 [2]): lacked or showed reduced ability to displace
inhibition at 1 µM (PDK1; [4]): 9%
inhibition at 1 µM (PDK1; [5]): 11%
inhibition at 1 µM (PDK1; [6]): ≤ 10%
IC50 [3, 7]: 458 nM
IC50 [3, 8]: 159 nM
Tm (°C), temperature stabilization of PDK1_1-556 (PDK1_1-556; compound 1 µM): 2.9 °C
Tm (°C), temperature stabilization of PDK1_1-556 (PDK1_1-556; compound 20 µM): 6.0 °C
displacement of PIP3 from GST-PDK1_360-556 (GST-PDK1_360-556): lacked or showed reduced ability to displace

CC(C)C(NCc1ccc(-c2ccccc2-c2nnn[nH]2)cc1)C(=O)O (centres unmarked) [Des(oxopentyl) valsartan, des(oxopentyl)valsartan, reference compound]
effect on PDK1 dimer formation [3]: did not disrupt PDK1 dimers

CNc1nc(-c2ccc3c(N)n[nH]c3c2)cc(N2C[C@@H](C(=O)NC3CCCCC3)CC[C@H]2C)n1 [GSK2334470]
effect on PDK1 dimer formation [3]: None of these compounds affected the dimerization

CC(=O)O[C@H]1[C@@H](OP(=O)(O)O)[C@H](OP(=O)(O)O)[C@@H](OP(=O)(O)O)[C@H](OP(=O)(O)O)[C@H]1OP(=O)(O)O [HYG6, 2-O-acetyl-IP5]
inhibition at 1 µM (PDK1; [4]): 53%
inhibition at 1 µM (PDK1; [5]): 64%
inhibition at 1 µM (PDK1; [6]): 59%
Hill slope, PDK1 direct (PDK1): 1.11
IC50 (PDK1): 449 nM
times less potent inhibitors than HYG7, HYG8 and HYG14 (PDK1; PDK1 Direct assay IC50 comparison): 15 to 36 times
IC50 [3, 7]: 27 nM
IC50 [3, 8]: 17.9 nM
Tm (°C), temperature stabilization of PDK1_1-556 (PDK1_1-556; compound 1 µM): 7.8 °C
Tm (°C), temperature stabilization of PDK1_1-556 (PDK1_1-556; compound 20 µM): 9.9 °C

CCCC(=O)O[C@H]1[C@@H](OP(=O)(O)O)[C@H](OP(=O)(O)O)[C@@H](OP(=O)(O)O)[C@H](OP(=O)(O)O)[C@H]1OP(=O)(O)O [HYG7, 2-O-butyryl-IP5]
inhibition at 1 µM (PDK1; [4]): 101%
inhibition at 1 µM (PDK1; [5]): 99%
inhibition at 1 µM (PDK1; [6]): 100%
Hill slope, PDK1 direct (PDK1): 1.39
IC50 (PDK1): 29 nM
IC50 [3, 7]: 22.6 nM
IC50 [3, 8]: 22.7 nM
Tm (°C), temperature stabilization of PDK1_1-556 (PDK1_1-556; compound 1 µM): 12.6 °C and 11-15 °C
Tm (°C), temperature stabilization of PDK1_1-556 (PDK1_1-556; compound 20 µM): 14.5 °C and 13-16 °C

O=P(O)(O)OC1[C@H](O)[C@H](OP(=O)(O)O)C(OP(=O)(O)O)[C@H](OP(=O)(O)O)[C@H]1O (some centres unmarked) [IP4, inositol-1,3,4,5-tetrakisphosphate, reference compound]
effect on PDK1-PIFtide interaction (GST-PDK1_1-556 [1]): did not enhance binding to PIFtide
